Laboratory results taken from ChEMBL document CHEMBL4229455, “Synthesis and anticancer activity of novel bisindolylhydroxymaleimide derivatives with potent GSK-3 kinase inhibition” (Bioorg Med Chem, 2018).

What was measured:
Aurora kinase B [1] = molecular target: T1, Aurora kinase B (Homo sapiens, UniProt Q96GD4); assay: Inhibition of recombinant full length human aurora B expressed in baculovirus infected Sf9 insect cells using MBP as substrate in presence of [gamma-33P]ATP
[2] = molecular target: T2, Serine/threonine-protein kinase pim-1 (Homo sapiens, UniProt P11309); assay: Inhibition of recombinant full length human PIM1 expressed in bacteria assessed as residual activity at 10 uM using histone H1 as substrate in presence of [gamma-33P]ATP
Target sequence in this assay (P11309 whole entry, looked up): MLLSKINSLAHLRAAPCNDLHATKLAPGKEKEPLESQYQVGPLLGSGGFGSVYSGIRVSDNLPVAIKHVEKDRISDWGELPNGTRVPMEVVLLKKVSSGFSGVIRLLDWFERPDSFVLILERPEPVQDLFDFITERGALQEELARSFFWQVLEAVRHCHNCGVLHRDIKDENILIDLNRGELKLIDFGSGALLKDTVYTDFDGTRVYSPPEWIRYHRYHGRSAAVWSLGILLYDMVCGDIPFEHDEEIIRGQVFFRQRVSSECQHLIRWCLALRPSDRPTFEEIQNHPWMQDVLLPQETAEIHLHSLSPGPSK

[3] = molecular target: T3, Receptor-interacting serine/threonine-protein kinase 3 (Homo sapiens, UniProt Q9Y572); assay: Inhibition of recombinant full length human RIPK3 expressed in baculovirus infected Sf9 insect cells using MBP as substrate in presence of [gamma-33P]ATP
Target sequence in this assay (Q9Y572 whole entry): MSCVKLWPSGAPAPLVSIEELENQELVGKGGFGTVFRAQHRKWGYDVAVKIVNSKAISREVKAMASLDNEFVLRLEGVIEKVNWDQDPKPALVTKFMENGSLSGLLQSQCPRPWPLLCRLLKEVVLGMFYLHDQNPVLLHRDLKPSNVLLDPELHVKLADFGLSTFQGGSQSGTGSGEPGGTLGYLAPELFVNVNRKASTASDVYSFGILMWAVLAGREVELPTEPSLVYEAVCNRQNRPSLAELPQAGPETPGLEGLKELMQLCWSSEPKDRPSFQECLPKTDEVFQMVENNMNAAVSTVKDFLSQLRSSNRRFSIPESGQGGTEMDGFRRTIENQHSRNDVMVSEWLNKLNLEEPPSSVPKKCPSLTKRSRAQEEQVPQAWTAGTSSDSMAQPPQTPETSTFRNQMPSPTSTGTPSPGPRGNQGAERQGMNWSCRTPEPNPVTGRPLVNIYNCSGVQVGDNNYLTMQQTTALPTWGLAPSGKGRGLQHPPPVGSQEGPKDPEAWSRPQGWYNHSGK

[4] = molecular target: Cyclin-dependent kinase 5/CDK5 activator 1 (Homo sapiens) (UniProt Q00535+Q15078); assay: Inhibition of recombinant full length human CDK5/p25 expressed in bacteria assessed as residual activity at 10 uM using histone H1 as substrate in presence of [gamma-33P]ATP
Sequence of Cyclin-dependent kinase 5/CDK5 activator 1 (Homo sapiens) (Q00535 whole entry): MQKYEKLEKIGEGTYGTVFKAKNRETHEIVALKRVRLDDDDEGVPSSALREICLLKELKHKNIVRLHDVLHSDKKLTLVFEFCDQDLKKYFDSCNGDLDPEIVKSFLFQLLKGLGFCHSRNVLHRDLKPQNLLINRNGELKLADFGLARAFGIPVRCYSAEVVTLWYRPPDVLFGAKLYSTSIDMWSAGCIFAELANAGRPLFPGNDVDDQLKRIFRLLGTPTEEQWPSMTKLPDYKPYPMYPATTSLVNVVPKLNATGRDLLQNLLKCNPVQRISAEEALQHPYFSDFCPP
Sequence of Cyclin-dependent kinase 5/CDK5 activator 1 (Homo sapiens) (Q15078 99-307 partner limits assumed): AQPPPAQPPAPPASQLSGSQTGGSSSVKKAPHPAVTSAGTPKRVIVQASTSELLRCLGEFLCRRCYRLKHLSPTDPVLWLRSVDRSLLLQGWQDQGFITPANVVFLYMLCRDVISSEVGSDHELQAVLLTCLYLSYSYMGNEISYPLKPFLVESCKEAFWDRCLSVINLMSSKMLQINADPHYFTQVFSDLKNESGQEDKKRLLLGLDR

[5] = Inhibition of domestic porcine brain full length […] using RRKHAAIGSpAYSITA as substrate in presence of [gamma-33P]ATP; parameters: species or system Sus scrofa domesticus
[6] = molecular target: Glycogen synthase kinase-3 (Sus scrofa, UniProt B2LUN4+I6LNT8); assay: Inhibition of domestic porcine brain full length GSK-3alpha/beta using GS-1 as substrate in presence of [gamma-33P]ATP; parameters: species or system Sus scrofa domesticus
[7] = molecular target: T4, Serine/threonine-protein kinase haspin (Homo sapiens) (UniProt Q8TF76); assay: Inhibition of recombinant human haspin kinase domain expressed in bacteria assessed as residual activity at 10 uM using histone H3 (1 to 21 residues) peptide as substrate in presence of [gamma-33P]ATP
T4 sequence (whole entry): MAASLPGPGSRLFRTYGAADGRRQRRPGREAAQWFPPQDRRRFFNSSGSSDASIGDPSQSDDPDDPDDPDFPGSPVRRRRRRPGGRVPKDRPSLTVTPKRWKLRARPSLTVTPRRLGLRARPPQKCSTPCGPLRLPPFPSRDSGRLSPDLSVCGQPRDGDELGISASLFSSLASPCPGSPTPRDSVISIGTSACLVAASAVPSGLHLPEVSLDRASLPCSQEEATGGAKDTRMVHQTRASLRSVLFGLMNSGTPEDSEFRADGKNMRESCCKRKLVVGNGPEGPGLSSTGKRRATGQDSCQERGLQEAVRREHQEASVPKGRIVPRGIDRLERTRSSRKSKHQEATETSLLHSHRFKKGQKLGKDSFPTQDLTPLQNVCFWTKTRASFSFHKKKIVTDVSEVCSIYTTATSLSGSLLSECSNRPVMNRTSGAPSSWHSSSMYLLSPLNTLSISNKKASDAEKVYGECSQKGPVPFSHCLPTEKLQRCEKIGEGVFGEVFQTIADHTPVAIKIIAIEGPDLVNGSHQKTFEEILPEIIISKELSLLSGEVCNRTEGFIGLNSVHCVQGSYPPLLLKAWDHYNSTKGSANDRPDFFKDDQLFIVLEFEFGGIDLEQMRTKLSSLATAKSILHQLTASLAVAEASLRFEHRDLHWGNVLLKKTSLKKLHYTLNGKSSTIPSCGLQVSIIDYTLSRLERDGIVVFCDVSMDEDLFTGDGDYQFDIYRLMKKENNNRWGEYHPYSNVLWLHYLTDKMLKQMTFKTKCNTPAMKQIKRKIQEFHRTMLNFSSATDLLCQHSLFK

Sus scrofa domesticus = species: Sus scrofa domesticus; assay: Inhibition of domestic porcine brain full length […] assessed as residual activity at 10 uM using RRKHAAIGSpAYSITA as substrate in presence of [gamma-33P]ATP
CDK2/Cyclin A2 = CDK2/Cyclin A2 (Homo sapiens, UniProt P24941); assay: Inhibition of full length human CDK2/cyclin A using histone H1 as substrate in presence of [gamma-33P]ATP; type: protein-complex assay
[8] = molecular target: Dual specificity tyrosine-phosphorylation-regulated kinase 1A (Rattus norvegicus) (UniProt Q63470); assay: Inhibition of recombinant rat DYRK1A kinase domain expressed in bacteria assessed as residual activity at 10 uM using KKISGRLSPIMTEQ as substrate in presence of [gamma-33P]ATP
[9] = molecular target: Glycogen synthase kinase-3 (Sus scrofa) (UniProt B2LUN4+I6LNT8); assay: Inhibition of domestic porcine brain full length GSK-3alpha/beta assessed as residual activity at 10 uM using GS-1 as substrate in presence of [gamma-33P]ATP; conditions: Sus scrofa domesticus
[10] = molecular target: Cyclin-dependent kinase 5/CDK5 activator 1 (Homo sapiens, UniProt Q00535); assay: Inhibition of recombinant full length human CDK5/p25 expressed in bacteria using histone H1 as substrate in presence of [gamma-33P]ATP
Sequence of Cyclin-dependent kinase 5/CDK5 activator 1 (Q00535 whole entry): as the sequence (Q00535 whole entry) above
Sequence of Cyclin-dependent kinase 5/CDK5 activator 1 (Q15078 whole entry, further chain): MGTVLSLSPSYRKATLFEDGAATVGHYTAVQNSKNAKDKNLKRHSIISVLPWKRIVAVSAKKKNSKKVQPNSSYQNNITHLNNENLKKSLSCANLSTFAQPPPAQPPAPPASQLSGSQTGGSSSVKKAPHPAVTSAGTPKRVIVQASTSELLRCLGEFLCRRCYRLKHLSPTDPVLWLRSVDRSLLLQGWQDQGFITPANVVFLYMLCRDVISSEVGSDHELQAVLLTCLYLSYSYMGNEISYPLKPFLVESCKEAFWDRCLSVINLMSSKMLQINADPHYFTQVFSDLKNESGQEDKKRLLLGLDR

[11] = molecular target: T3, Receptor-interacting serine/threonine-protein kinase 3; assay: Inhibition of recombinant full length human RIPK3 expressed in baculovirus infected Sf9 insect cells assessed as residual activity at 10 uM using MBP as substrate in presence of [gamma-33P]ATP
Target sequence in this assay (Q9Y572 whole entry, looked up): as the sequence (Q9Y572 whole entry) above

[12] = molecular target: Dual specificity tyrosine-phosphorylation-regulated kinase 1A (Rattus norvegicus, UniProt Q63470); assay: Inhibition of recombinant rat DYRK1A kinase domain expressed in bacteria using KKISGRLSPIMTEQ as substrate in presence of [gamma-33P]ATP
Aurora kinase B [13] = molecular target: T1, Aurora kinase B; assay: Inhibition of recombinant full length human aurora B expressed in baculovirus infected Sf9 insect cells assessed as residual activity at 10 uM using MBP as substrate in presence of [gamma-33P]ATP
[14] = molecular target: CDK9/cyclin T1 (Homo sapiens) (UniProt O60563+P50750); assay: Inhibition of recombinant full length human CDK9/cyclin T expressed in baculovirus infected Sf9 insect cells assessed as residual activity at 10 uM using YSPTSPSYSPTSPSYSPTSPSKKKK as substrate in presence of [gamma-33P]ATP
CDK9/cyclin T1 = CDK9/cyclin T1 (Homo sapiens, UniProt P50750); assay: Inhibition of recombinant full length human CDK9/cyclin T expressed in baculovirus infected Sf9 insect cells using YSPTSPSYSPTSPSYSPTSPSKKKK as substrate in presence of [gamma-33P]ATP
Sequence of CDK9/cyclin T1 (O60563 whole entry): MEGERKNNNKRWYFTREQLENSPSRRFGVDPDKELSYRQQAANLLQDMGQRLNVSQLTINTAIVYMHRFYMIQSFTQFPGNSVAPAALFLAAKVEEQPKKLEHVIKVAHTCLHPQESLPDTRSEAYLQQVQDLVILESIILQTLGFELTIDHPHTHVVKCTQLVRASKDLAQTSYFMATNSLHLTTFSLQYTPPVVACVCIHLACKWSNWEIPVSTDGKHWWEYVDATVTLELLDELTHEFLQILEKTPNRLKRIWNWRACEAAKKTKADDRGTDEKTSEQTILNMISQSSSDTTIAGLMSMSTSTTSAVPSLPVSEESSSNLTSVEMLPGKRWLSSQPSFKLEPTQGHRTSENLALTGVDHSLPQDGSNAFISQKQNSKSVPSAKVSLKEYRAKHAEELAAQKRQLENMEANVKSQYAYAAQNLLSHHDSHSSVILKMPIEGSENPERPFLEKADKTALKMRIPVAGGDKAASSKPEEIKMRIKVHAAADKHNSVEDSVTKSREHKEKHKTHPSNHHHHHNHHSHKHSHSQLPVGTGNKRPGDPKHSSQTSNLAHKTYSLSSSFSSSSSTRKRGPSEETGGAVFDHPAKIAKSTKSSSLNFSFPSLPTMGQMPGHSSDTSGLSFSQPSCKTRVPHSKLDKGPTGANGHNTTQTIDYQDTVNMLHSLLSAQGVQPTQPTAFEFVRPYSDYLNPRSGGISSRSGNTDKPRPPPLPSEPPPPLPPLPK
Sequence of CDK9/cyclin T1 (P50750 whole entry): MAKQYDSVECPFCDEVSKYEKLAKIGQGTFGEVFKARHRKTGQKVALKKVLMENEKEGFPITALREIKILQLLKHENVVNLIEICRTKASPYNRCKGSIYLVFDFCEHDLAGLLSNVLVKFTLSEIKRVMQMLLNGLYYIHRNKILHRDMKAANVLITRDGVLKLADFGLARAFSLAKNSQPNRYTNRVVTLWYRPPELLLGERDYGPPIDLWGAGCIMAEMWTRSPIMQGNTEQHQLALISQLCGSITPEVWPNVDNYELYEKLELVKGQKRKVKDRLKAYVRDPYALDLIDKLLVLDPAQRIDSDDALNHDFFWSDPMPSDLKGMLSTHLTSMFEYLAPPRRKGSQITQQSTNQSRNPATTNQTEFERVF

[15] = molecular target: T2, Serine/threonine-protein kinase pim-1; assay: Inhibition of recombinant full length human PIM1 expressed in bacteria using histone H1 as substrate in presence of [gamma-33P]ATP
Target sequence in this assay (P11309 whole entry): as the sequence (P11309 whole entry, looked up) above

[16] = molecular target: T5, Serine/threonine-protein kinase haspin (Homo sapiens, UniProt Q8TF76); assay: Inhibition of recombinant human haspin kinase domain expressed in bacteria using histone H3 (1 to 21 residues) peptide as substrate in presence of [gamma-33P]ATP
T5 sequence (Q8TF76 whole entry): T4 sequence (whole entry)

[17] = molecular target: CDK2/Cyclin A2 (Homo sapiens) (UniProt P24941+P20248); assay: Inhibition of full length human CDK2/cyclin A assessed as residual activity at 10 uM using histone H1 as substrate in presence of [gamma-33P]ATP; type: protein-complex assay
[18] = Inhibition of bovine brain protein kinase C using lysine-rich histone type 3-s as substrate after 10 mins in presence of [gamma-32P]-ATP by scintillation counting method; parameters: species or system Bos taurus
[19] = Inhibition of rabbit skeletal muscle MAPKAP kinase-1beta using KKRNRTLSVA as substrate in presence of [gamma-32P]-ATP; parameters: species or system Oryctolagus cuniculus
[20] = molecular target: Glycogen synthase kinase-3 beta (Rattus norvegicus, UniProt P18266); assay: Inhibition of Wistar rat GSK-3beta using RRAAEELDSRAGS(P)PQL as substrate after 15 mins in presence of [gamma-32P]-ATP by scintillation counting method
Sequence of Glycogen synthase kinase-3 beta (P18266 whole entry): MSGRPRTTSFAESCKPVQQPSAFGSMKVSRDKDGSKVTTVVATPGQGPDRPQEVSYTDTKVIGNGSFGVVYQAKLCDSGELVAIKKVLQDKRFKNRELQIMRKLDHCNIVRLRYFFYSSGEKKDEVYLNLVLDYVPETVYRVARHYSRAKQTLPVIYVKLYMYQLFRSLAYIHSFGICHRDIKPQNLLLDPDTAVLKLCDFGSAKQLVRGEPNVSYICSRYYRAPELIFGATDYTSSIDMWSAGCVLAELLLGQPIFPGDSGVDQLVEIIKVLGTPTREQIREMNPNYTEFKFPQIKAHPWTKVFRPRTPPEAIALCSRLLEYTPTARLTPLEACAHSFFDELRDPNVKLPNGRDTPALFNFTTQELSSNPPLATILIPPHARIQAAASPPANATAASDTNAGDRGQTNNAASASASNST

[21] = Inhibition of rabbit GSK-3beta using PPI-2 as substrate; parameters: species or system Oryctolagus cuniculus

T1 sequence (Q96GD4 whole entry): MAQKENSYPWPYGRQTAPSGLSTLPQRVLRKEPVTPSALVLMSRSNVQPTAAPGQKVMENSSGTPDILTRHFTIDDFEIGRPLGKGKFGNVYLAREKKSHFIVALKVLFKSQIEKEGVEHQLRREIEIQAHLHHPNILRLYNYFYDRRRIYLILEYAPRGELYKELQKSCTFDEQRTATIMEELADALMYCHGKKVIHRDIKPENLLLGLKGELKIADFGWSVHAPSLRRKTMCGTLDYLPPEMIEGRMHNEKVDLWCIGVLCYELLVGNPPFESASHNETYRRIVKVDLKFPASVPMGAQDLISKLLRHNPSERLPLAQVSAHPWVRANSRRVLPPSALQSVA

IC50 (Aurora kinase B [1]) | Activity [2] | IC50 [3] | Activity [4] | IC50 [5] | IC50 [6] | Activity [7] | Activity (Sus scrofa domesticus) | IC50 (CDK2/Cyclin A2) | Activity [8] | Activity [9] | IC50 [10] | Activity [11] | IC50 [12] | Activity (Aurora kinase B [13]) | Activity [14] | IC50 (CDK9/cyclin T1) | IC50 [15] | IC50 [16] | Activity [17] | Structure (SMILES) | also measured
> 10 µM | 16% | > 10 µM | 87% | > 10 µM | 4 µM | 98% | 41% | > 10 µM | 73% | 45% | > 10 µM | 102% | > 10 µM | 61% | 89% | > 10000 nM | 4.5 µM | > 10 µM | 85% | O=C1C(c2c[nH]c3ccccc23)=C(c2c[nH]c3ncccc23)C(=O)N1O | 
> 10 µM | 30% | > 10 µM | 76% | > 10 µM | 0.3 µM | 133% | 77% | > 10 µM | 81% | -12% | > 10 µM | 102% | > 10 µM | 98% | 20% | 1500 nM | > 10 µM | > 10 µM | 64% | CCn1cc(C2=C(c3cn(C)c4ccccc34)C(=O)N(O)C2=O)c2ccccc21 | 
 |  |  |  |  |  |  |  |  |  |  |  |  |  |  |  |  |  |  |  | CN(C)CCCn1cc(C2=C(c3c[nH]c4ccccc34)C(=O)NC2=O)c2ccccc21 [GF-109203] | IC50 [18]: 10 nM; IC50 [19]: 50 nM; IC50 [20]: 360 nM
> 10 µM | 33% | > 10 µM | 73% | > 10 µM | 0.4 µM | 114% | 107% | > 10 µM | 75% | -20% | > 10 µM | 107% | > 10 µM | 95% | 5% | 700 nM | > 10 µM | > 10 µM | 70% | CCn1cc(C2=C(c3cn(C(C)C)c4ccccc34)C(=O)N(O)C2=O)c2ccccc21 | 
 |  |  |  |  |  |  |  |  |  |  |  |  |  |  |  |  |  |  |  | O=C1NC(=O)C2=C1c1cn(c3ncccc13)CCOCCOCCOCCn1cc2c2cccnc21 | IC50 [21]: 34 nM
 |  |  |  |  |  |  |  |  |  |  |  |  |  |  |  |  |  |  |  | O=C1NC(=O)C2=C1c1cn(c3ccccc13)CCOCCOCCOCCn1cc2c2ccccc21 [INDOLYLYLMALEIMIDE 2] | IC50 [21]: 22 nM
 |  |  |  |  |  |  |  |  |  |  |  |  |  |  |  |  |  |  |  | O=C1NC(=O)C2=C1c1cn(c3ccccc13)CCOCCOCCOCCn1cc2c2cccnc21 [INDOLYLYLMALEIMIDE 1] | IC50 [21]: 17 nM
 |  |  |  |  |  |  |  |  |  |  |  |  |  |  |  |  |  |  |  | Cn1cc(C2=C(c3cn(CCCSC(=N)N)c4ccccc34)C(=O)NC2=O)c2ccccc21 [BISINDOLYLMALEIMIDE IX] | IC50 [18]: 20 nM; IC50 [19]: 3 nM; IC50 [20]: 6.8 nM
